Measured values taken from US20150374712A1, “Combinations of Dopamine D2 Receptor Blockade With Norepinephrine Reuptake Inhibition and with Norepinephrine Alpha 2 Receptor Blockade” (priority 2007, published 2015).
“Also recorded” adds a separate entry of the source.

What was measured:
Syrian golden hamster [1] = assay: Chronic alcohol drinking in Syrian golden hamsters (free choice of alcohol and water); assay type: in vivo, Mesocricetus auratus
Method: (§1) All animals were given 24 hours/day access to 10-15% alcohol and water in two separate drinking bottles. Groups of animals (n=6-10/group) received daily injections of the specific drug or drug combination or vehicle for up to 4 weeks.

alcohol preferring P rat = assay: Initiation of alcohol drinking in alcohol-preferring P rats; assay type: in vivo
Method: as §1

Syrian golden hamster [2] = settings: vs vehicle, Example 1 (prior art, FIG. 1, Green et al. 2004); cited from earlier work

In the case of `CN1CCN(C2=Nc3cc(Cl)ccc3Nc3ccccc32)CC1` [clozapine], the “duration of clozapine's effect on alcohol drinking” value (Syrian golden hamster [1]; Syrian golden hamster, chronic clozapine, Example 2, FIG. 2, unpublished data) is reported as “at least 1 month”.

For `O=C(CCCN1CCC(O)(c2ccc(Cl)cc2)CC1)c1ccc(F)cc1` [haloperidol], the “initiation of alcohol drinking” value (alcohol preferring P rat; low-dose haloperidol, Example 7, FIG. 7) is given as “minimal ability to blunt the initiation of alcohol drinking” and the chronic alcohol drinking (Syrian golden hamster [2]) is given as “No dose of haloperidol tested had an effect on alcohol drinking; also recorded: very little effect on chronic alcohol drinking”.

In the case of `Cc1nc2n(c(=O)c1CCN1CCC(c3noc4cc(F)ccc34)CC1)CCCC2` [risperidone], the “alcohol drinking (chronic drinking)” value (Syrian golden hamster [1]; hamster, low dose of risperidone, Examples 9-10, FIGS. 9, 10) is reported as “only a modest effect on alcohol drinking” and the “alcohol drinking (initiation of alcohol drinking)” value (alcohol preferring P rat; low dose of risperidone, Example 11, FIG. 11) is reported as “only a modest effect on alcohol drinking”.
